In test [1] the test system is Calf thymus DNA. In words: Apparent binding constant to calf thymus DNA (CT-DNA). Particulars: Bos taurus. The test is classed as nucleic-acid assay.
Test [2] deals with MDA-MB-435. In words: In vitro antitumor activity against human MDA-MB-435 tumor cell line. The test is classed as functional, cell-based.
Test [3] deals with Nucleic Acid. Description: Thermal denaturation alteration for calf thymus DNA (CT-DNA) binding to the compound was determined. Type of test: functional. The conditions noted are these: Bos taurus.
In test [4] the test system is BGC-823. Description: In vitro antitumor activity against humanBGC-823 tumor cell line. Type of test: functional, cell-based. The conditions noted are these: Homo sapiens.
Test [5] can be described thus: In vitro antitumor activity against human PC-3MIE8 tumor cell line. The test is classed as functional.
The test system of test [6] is HL-60. Description: In vitro antitumor activity against humanHL-60 tumor cell line. The test is classed as functional, cell-based. Particulars: Homo sapiens.

The structures appear in SMILES notation.

Our source for the Kb, IC50 and ΔTm values is ChEMBL document CHEMBL1140354, “Novel peptide derivatives of bleomycin A5: synthesis, antitumor activity and interaction with DNA” (Bioorg Med Chem Lett, 2005).

As usually defined, the IC50 is the concentration that inhibits the measured activity by half. A higher IC50 goes with weaker potency. One may read the ΔTm as the change in melting temperature against a reference sample.

For `Cc1c(N)nc([C@H](CC(N)=O)NC[C@H](N)C(N)=O)nc1C(=O)N[C@H](C(=O)N[C@H](C)[C@@H](O)[C@H](C)C(=O)N[C@H](C(=O)NCCc1nc(-c2nc(C(=O)NCCCNCCCCNC(=O)[C@H](N)C(C)C)cs2)cs1)[C@@H](C)O)[C@@H](O[C@@H]1O[C@@H](CO)[C@@H](O)[C@H](O)[C@@H]1O[C@H]1O[C@H](CO)[C@@H](O)[C@H](OC(N)=O)[C@@H]1O)c1c[nH]cn1`, the Kb in test [1] stood at 249000. In addition, the half-maximal inhibitory concentration (IC50) is 130 nM in test [2], 800 nM in test [4], 800 nM in test [5] and 310 nM in test [6]. Moreover, the shift in melting temperature (ΔTm) in test [3] was 1.1 °C.

Consider `Cc1c(N)nc([C@H](CC(N)=O)NC[C@H](N)C(N)=O)nc1C(=O)N[C@H](C(=O)N[C@H](C)[C@@H](O)[C@H](C)C(=O)N[C@H](C(=O)NCCc1nc(-c2nc(C(=O)NCCCNCCCCNC(=O)[C@H](CC(C)C)NC(=O)[C@@H](N)C(C)C)cs2)cs1)[C@@H](C)O)[C@@H](O[C@@H]1O[C@@H](CO)[C@@H](O)[C@@H](O)[C@@H]1O[C@H]1O[C@H](CO)[C@@H](O)[C@H](OC(N)=O)[C@@H]1O)c1c[nH]cn1`, for which the Kb in test [1] amounted to 423000. In addition, the IC50 was determined as 320 nM in test [2], 870 nM in test [4], 1320 nM in test [5] and 630 nM in test [6]. In test [3], the ΔTm was 1.8 °C.

Regarding `Cc1c(N)nc([C@H](CC(N)=O)NC[C@H](N)C(N)=O)nc1C(=O)N[C@H](C(=O)N[C@H](C)[C@@H](O)[C@H](C)C(=O)N[C@H](C(=O)NCCc1nc(-c2nc(C(=O)NCCCNCCCCNC(=O)[C@H](CCCCN)NC(=O)[C@H](N)C(C)C)cs2)cs1)[C@@H](C)O)[C@@H](O[C@@H]1O[C@@H](CO)[C@@H](O)[C@H](O)[C@@H]1O[C@H]1O[C@H](CO)[C@@H](O)[C@H](OC(N)=O)[C@@H]1O)c1c[nH]cn1`, in test [1], the Kb was 408000. Further, the IC50 came to 100 nM in test [2], 1170 nM in test [4], 1910 nM in test [5] and 740 nM in test [6]. Besides, the ΔTm in test [3] turned out to be 5.9 °C.

As for `Cc1c(N)nc([C@H](CC(N)=O)NC[C@H](N)C(N)=O)nc1C(=O)N[C@H](C(=O)N[C@H](C)[C@@H](O)[C@H](C)C(=O)N[C@H](C(=O)NCCc1nc(-c2nc(C(=O)NCCCNCCCCN)cs2)cs1)[C@@H](C)O)[C@@H](O[C@@H]1O[C@@H](CO)[C@@H](O)[C@@H](O)[C@@H]1O[C@H]1O[C@H](CO)[C@@H](O)[C@H](OC(N)=O)[C@@H]1O)c1c[nH]cn1`, the Kb in test [1] is 457000. In addition, the half-maximal inhibitory concentration (IC50) was 1640 nM in test [2], 1250 nM in test [4], 1480 nM in test [5] and 250 nM in test [6]. Further, in test [3], the thermal shift (ΔTm) amounted to 2.9 °C.

`Cc1c(N)nc([C@H](CC(N)=O)NC[C@H](N)C(N)=O)nc1C(=O)N[C@H](C(=O)N[C@H](C)[C@@H](O)[C@H](C)C(=O)N[C@H](C(=O)NCCc1nc(-c2nc(C(=O)NCCCNCCCCNC(=O)[C@H](N)CC(C)C)cs2)cs1)[C@@H](C)O)[C@@H](O[C@@H]1O[C@@H](CO)[C@@H](O)[C@H](O)[C@@H]1O[C@H]1O[C@H](CO)[C@@H](O)[C@H](OC(N)=O)[C@@H]1O)c1c[nH]cn1`: in test [1], the Kb was determined as 283000. In addition, the half-inhibitory concentration (IC50) in test [2] was 170 nM; in test [4] it was 730 nM; in test [5], 1270 nM; in test [6], 370 nM. Also, in test [3], the ΔTm was determined as 1.5 °C.

`Cc1c(N)nc([C@H](CC(N)=O)NC[C@H](N)C(N)=O)nc1C(=O)N[C@H](C(=O)N[C@H](C)[C@@H](O)[C@H](C)C(=O)N[C@H](C(=O)NCCc1nc(-c2nc(C(=O)NCCCNCCCCNC(=O)[C@H](N)CCCCN)cs2)cs1)[C@@H](C)O)[C@@H](O[C@@H]1O[C@@H](CO)[C@@H](O)[C@H](O)[C@@H]1O[C@H]1O[C@H](CO)[C@@H](O)[C@H](OC(N)=O)[C@@H]1O)c1c[nH]cn1`: in test [1], the Kb was 559000. In addition, the IC50 in test [2] is 100 nM; in test [4] it was 920 nM; in test [5], 1080 nM; in test [6] it was 510 nM. In addition, in test [3], the ΔTm turned out to be 8.4 °C.

As to `Cc1c(N)nc([C@H](CC(N)=O)NC[C@H](N)C(N)=O)nc1C(=O)N[C@H](C(=O)N[C@H](C)[C@@H](O)[C@H](C)C(=O)N[C@H](C(=O)NCCc1nc(-c2nc(C(=O)NCCCNCCCCNC(=O)[C@H](CCCCN)NC(=O)[C@@H](CC(C)C)NC(=O)[C@@H](N)C(C)C)cs2)cs1)[C@@H](C)O)[C@@H](O[C@@H]1O[C@@H](CO)[C@@H](O)[C@H](O)[C@@H]1O[C@H]1O[C@H](CO)[C@@H](O)[C@H](OC(N)=O)[C@@H]1O)c1c[nH]cn1`, the Kb in test [1] is 496000. In addition, the IC50 was 70 nM in test [2], 600 nM in test [4], 1140 nM in test [5] and 70 nM in test [6]. In test [3], the thermal shift (ΔTm) was determined as 4.7 °C.

Take `Cc1c(N)nc([C@H](CC(N)=O)NC[C@H](N)C(N)=O)nc1C(=O)N[C@H](C(=O)N[C@H](C)[C@@H](O)[C@H](C)C(=O)N[C@H](C(=O)NCCc1nc(-c2nc(C(=O)NCCCNCCCCNC(=O)[C@@H](N)C(C)C)cs2)cs1)[C@@H](C)O)[C@@H](O[C@@H]1O[C@@H](CO)[C@@H](O)[C@H](O)[C@@H]1O[C@H]1O[C@H](CO)[C@@H](O)[C@H](OC(N)=O)[C@@H]1O)c1c[nH]cn1`: the Kb in test [1] was found to be 325000. For the same molecule, the half-maximal inhibitory concentration (IC50) in test [2] came to 130 nM; in test [4] it was 1390 nM; in test [5] it was 1830 nM; in test [6], 660 nM. Also, the shift in melting temperature (ΔTm) in test [3] was 1.9 °C.

As to `Cc1c(N)nc([C@H](CC(N)=O)NC[C@H](N)C(N)=O)nc1C(=O)N[C@H](C(=O)N[C@H](C)[C@@H](O)[C@H](C)C(=O)N[C@H](C(=O)NCCc1nc(-c2nc(C(=O)NCCCNCCCCNC(=O)[C@H](CC(C)C)NC(=O)[C@H](N)C(C)C)cs2)cs1)[C@@H](C)O)[C@@H](O[C@@H]1O[C@@H](CO)[C@@H](O)[C@H](O)[C@@H]1O[C@H]1O[C@H](CO)[C@@H](O)[C@H](OC(N)=O)[C@@H]1O)c1c[nH]cn1`, in test [1], the Kb was found to be 260000. Besides, the IC50 came out at 90 nM in test [2], 930 nM in test [4], 1180 nM in test [5] and 270 nM in test [6]. The thermal shift (ΔTm) in test [3] turned out to be 0.5 °C.

As to `Cc1c(N)nc([C@H](CC(N)=O)NC[C@H](N)C(N)=O)nc1C(=O)N[C@H](C(=O)N[C@H](C)[C@@H](O)[C@H](C)C(=O)N[C@H](C(=O)NCCc1nc(-c2nc(C(=O)NCCCNCCCCNC(=O)[C@H](CCCCN)NC(=O)[C@@H](N)C(C)C)cs2)cs1)[C@@H](C)O)[C@@H](O[C@@H]1O[C@@H](CO)[C@@H](O)[C@H](O)[C@@H]1O[C@H]1O[C@H](CO)[C@@H](O)[C@H](OC(N)=O)[C@@H]1O)c1c[nH]cn1`, the Kb in test [1] amounted to 463000. Besides, the IC50 in test [2] is 220 nM; in test [4], 1010 nM; in test [5], 3320 nM; in test [6] it was 980 nM. The ΔTm in test [3] was 7 °C.
